Measured values published in patent US9409975B2, “Antibody binding microbial heparin binding motif to retard or prevent microbial biofilm formation on implanted medical devices” (priority 2012, dated 2016).

Test system: C. albicans binding to heparin
Assay: Inhibition of binding of CFSE-labeled C. albicans to plate-bound heparin (antibody and heparin inhibition studies)
Type: cell-based, Candida albicans
Experimental: A single colony of C. albicans was suspended in CSM to an OD600 of 0.1, diluted 1:200 into 25 ml CSM and grown at 30° C. overnight to mid-log phase (OD600 0.6-0.7). Cells were washed twice in sterile PBS and suspended in PBS at 2×10^7 CFU/ml. Carboxyfluorescein succinimidyl ester (Life Technologies) was dissolved in DMSO, diluted in PBS to 50 μM, and 0.5 ml CFSE mixed with 0.5 ml C. albicans suspension. The mixture was incubated for 20 min at room temperature on a rotator, washed once with FACS buffer, once with PBS, then suspended in 1 ml FACS buffer. Intensity of labeling was determined as the mean fluorescence intensity using a BD Accuri C6 cytometer (San Jose, Calif.) with excitation at 488 nm and a 533/30 emission filter. […] The following afternoon, C. albicans wild type strain and mutants were labeled with CFSE as follows: after growth of C. albicans to mid-log phase in CSM medium, organisms were washed two times in PBS and suspended in PBS at a concentration of 2×10^7/ml. 0.5 ml cells was mixed with 0.5 ml CFSE, covered in foil, and rotated on a mixer for 20 minutes at room temperature. […] At the end of the incubation period, wells were washed three times with PBS, and fluorescence in each well was measured (Beckman Coulter Multimode detector DTX880). […]

Substance: heparin
- binding of C. albicans to solid-phase heparin after preincubation with heparin, in words (2.5 units (12.5 μg) solid-phase heparin): significantly decreased
- decrease in binding of C. albicans to heparin after pre-incubation with soluble heparin (CFSE-labeled C. albicans pre-incubated with 100 units/ml heparin, p=0.022, data not shown): 27%
